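All cell lines were grown in 96-well plates and treated with compound for 48 hours. GI50 = concentration required for 50% inhibition of growth. TGI marks complete inhibition of growth.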
Key:
Experiment in all cases: growth of human tumour cells (NCI), 48 h
[1] = system: HCT-15 colon
[2] = system: HCT-116 colon
[3] = system: MALME-3M melanoma
[4] = system: 786-0 renal
[5] = system: A498 renal
[6] = system: HL-60(TB) leukemia
[7] = system: SNB-75 CNS
[8] = system: HT29 colon
[9] = system: TK-10 renal
[10] = system: LOX IMVI melanoma

Row | SMILES | TGI [1] [µM] | TGI [2] [µM] | TGI [3] [µM] | TGI [4] [µM] | TGI [5] [µM] | TGI [6] [µM] | TGI [7] [µM] | TGI [8] [µM] | TGI [9] [µM] | TGI [10] [µM] | GI50 [1] [µM] | GI50 [2] [µM] | GI50 [3] [µM] | GI50 [4] [µM] | GI50 [5] [µM] | GI50 [7] [µM] | GI50 [9] [µM] | GI50 [10] [µM] | GI50 [6] [µM] | GI50 [8] [µM]
1 | Nc1nc(C(=O)O)c(N=Nc2ccccc2)c(=O)[nH]1 | > 100 | > 100 | > 100 | > 100 | > 100 | > 100 | > 100 | > 100 | > 100 | > 100 |  |  |  |  |  |  |  |  |  | 
2 | O=C(Cc1ccccc1)C(c1ccccc1)S(=O)(=O)c1ccccc1 (centres undefined) | > 100 | > 100 | > 100 | > 100 | > 100 | > 100 | > 100 | > 100 | > 100 | > 100 |  |  |  |  |  |  |  |  |  | 
3 | Clc1nc(Cl)c2ncn(CCOCCn3cnc4c(Cl)nc(Cl)nc43)c2n1 | 0.365 | 0.346 | 0.464 | 0.935 | 3.2 |  | 0.342 |  | 1.71 | 0.35 | 0.185 | 0.182 | 0.221 | 0.325 | 1.72 | 0.181 | 0.772 | 0.185 |  | 
4 | CC(N)CC(=O)O (centres undefined) | > 5000 | > 5000 | > 5000 | > 5000 | > 5000 | > 5000 | > 5000 | > 5000 | > 5000 |  |  |  |  |  |  |  |  |  |  | 
5 | Nc1nc2ccccc2c2c1S(=O)(=O)c1ccc(Cl)cc1C2=O | 2.31 | 32 | 4.25 | > 50 | 22.5 | 3.7 |  | 5.88 | > 50 | 1.84 | 0.812 | 1.87 | 1.23 | 5.93 | 2.37 |  | 1.93 | 0.873 | 1.39 | 1.63
6 | COc1cc(/C=C/C(=O)O[C@H]2[C@H](O[C@@H]3O[C@@H](C)[C@H](O)[C@@H](O)[C@H]3O)[C@@H](O)[C@H](OCCc3ccc(O)c(O)c3)O[C@@H]2COC2OCC(O)(CO)C2O)ccc1O (some centres undefined) | > 100 | > 100 |  | > 100 |  | > 100 | > 100 |  | > 100 | 53.6 | > 100 | > 100 |  | > 100 |  | > 100 | > 100 | 21.6 | > 100 | 
7 | COc1ccc2c(c1)C(=O)c1c-2c(=O)n(CCCN(C)C)c2cc(OC)c(OC)cc12 | 27.4 | 21.4 |  | 20.5 | > 100 | 31.7 | 23 | 19.1 | 29.3 | 15.6 | 12.6 | 4.53 |  | 6.93 | 15 | 10.1 | 15.5 | 1.6 | 10.4 | 3.69
8 | Cc1ccc(Cl)cc1-n1c(C)nc2c(cnn2-c2ccnc3c(C(F)(F)F)cccc23)c1=O | > 100 | > 100 | > 100 | > 100 |  | > 100 | > 100 | > 100 | > 100 | > 100 | > 100 | > 100 | > 100 | > 100 |  | > 100 | > 100 | > 100 | > 100 | > 100
9 | O=C1C(Sc2ccc3ccccc3c2)=C(Sc2ccc3ccccc3c2)C(=O)c2ccccc21 | 23.5 | 20.2 |  | 25.3 | 33.4 | 11.2 | 28.7 | 29 |  | 47.8 |  |  |  |  |  |  |  |  |  | 
10 | CC(=O)CC(=O)CCC(=O)Nc1cccc(C(F)(F)F)c1 | > 100 | > 100 | > 100 | > 100 | > 100 | > 100 |  | > 100 | > 100 | > 100 |  |  |  |  |  |  |  |  |  | 
11 | c1ccc2c(CNCCN3CCNCC3)c3ccccc3c(CNCCN3CCNCC3)c2c1 | > 100 | 29.5 | 30.2 | 23.4 | 60.7 |  | > 100 | > 100 | 79.8 | 29.5 | > 100 | 13.3 | 11.8 | 2.26 | 18.3 | 58.4 | 19.7 | 12.9 |  | 29.2
12 | O=[N+]([O-])/C=C/c1ccc(Cl)cc1Cl | 46.4 | 13 | 32.6 | 42.2 |  | 25.3 | 34.8 | 21.8 |  |  |  |  |  |  |  |  |  |  |  | 
13 | N#CC1C(N)=NNC12Nc1ccccc1S2 (centres undefined) | 64.2 | 35.9 |  | > 100 |  | > 100 |  |  | > 100 | 37.6 | 15.5 | 11.5 |  | 63.4 |  |  | 41.5 | 18.4 | 42.5 | 
14 | CSC1=Nc2c(c(C)c(-c3ccccc3)n2COC(CO)CO)C2=NC(=O)CN12 | > 100 | > 100 | > 100 | > 100 | > 100 |  | > 100 | > 100 | > 100 | > 100 | > 100 | > 100 | > 100 | > 100 | > 100 | 58.9 | > 100 | > 100 |  | > 100
15 | C[C@@H](NC(=O)c1ccc(F)cc1)c1ccc2c(c1)CCN2C(=O)C1CCOCC1 | > 100 | > 100 | > 100 | > 100 | 88.5 | > 100 | > 100 | > 100 |  | > 100 | > 100 | > 100 | > 100 | > 100 | 17.1 | 79.2 |  | > 100 | > 100 | > 100
16 | CC1CCC2C(CN(CC3=C(C(F)(F)F)OC4OC5(C)CCC6C(C)CCC3C46OO5)CC3=C(C(F)(F)F)OC4OC5(C)CCC6C(C)CCC3C46OO5)=C(C(F)(F)F)OC3OC4(C)CCC1C32OO4 (centres undefined) | 25.7 | 24.5 | 23 | 21.9 |  | 10.7 | > 100 | > 100 | 30 |  | 10 | 11.6 | 6.73 | 8.48 |  | 81.6 | 15.4 |  | 3.12 | 25.1

— PubChem BioAssay (NCI)
